The subject of the test is Meloidogyne incognita. The test can be described thus: Meloidogyne incognita test (sand, lettuce, gall formation). The class given is in vivo. Particulars: Meloidogyne incognita, 336 h, 20 ppm, after 14 days; read-out: nematicidal efficacy (formation of galls). In short, it runs like this: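 Gall counts on lettuce roots were scored after 14 days in sand inoculated with root-knot nematode eggs/larvae plus compound diluted in water. Values run from 0% (galls as in untreated plants) to 100% (gall-free).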
For `COc1ccc(S(=O)(=O)NC(=O)c2ncn(-c3ccc(Cl)cc3)c2Cl)cc1` [I-415], the pest or weed control at 20 ppm is 90%.
For the compound `O=C(NS(=O)(=O)c1ccccc1Cl)c1ncn(-c2ccc(Cl)cc2)c1Cl` [I-416], the pest or weed control at 20 ppm was determined as 100%.
Turning to `O=C(NS(=O)(=O)c1cccc(Cl)c1)c1ncn(-c2ccc(Cl)cc2)c1Cl` [I-417], the pest or weed control at 20 ppm was 100%.
`O=C(NS(=O)(=O)c1ccc(Cl)cc1)c1ncn(-c2ccc(Cl)cc2)c1Cl` [I-418]: the pest or weed control at 20 ppm is 100%.
For `COc1cccc(S(=O)(=O)NC(=O)c2ncn(-c3ccc(Cl)cc3)c2Cl)c1` [I-419], the pest or weed control at 20 ppm was determined as 100%.
Next, `COc1ccccc1S(=O)(=O)NC(=O)c1ncn(-c2ccc(Cl)cc2)c1Cl` [I-420]: 100%; `O=C(NS(=O)(=O)c1ccccc1)c1ncn(-c2ccc(C(F)(F)F)cc2)c1Cl` [I-421]: 100%.
Turning to `O=C(NS(=O)(=O)c1cccc(Cl)c1)c1ncn(-c2ccc(C(F)(F)F)cc2)c1Cl` [I-422], the pest or weed control at 20 ppm is 100%.
For `O=C(NS(=O)(=O)c1ccccc1Cl)c1ncn(-c2ccc(C(F)(F)F)cc2)c1Cl` [I-423], the pest or weed control at 20 ppm stood at 100%.
`COc1ccccc1S(=O)(=O)NC(=O)c1ncn(-c2ccc(C(F)(F)F)cc2)c1Cl` [I-424]: the pest or weed control at 20 ppm turned out to be 100%.
`COc1cccc(S(=O)(=O)NC(=O)c2ncn(-c3ccc(C(F)(F)F)cc3)c2Cl)c1` [I-425]: the pest or weed control at 20 ppm came to 100%.
Consider `COc1ccc(S(=O)(=O)NC(=O)c2ncn(-c3ccc(C(F)(F)F)cc3)c2Cl)cc1` [I-426], for which the pest or weed control at 20 ppm was found to be 90%.
As to `O=C(NS(=O)(=O)c1ccc(Cl)cc1)c1ncn(-c2ccccc2C(F)(F)F)c1Cl` [I-427], the pest or weed control at 20 ppm turned out to be 100%.
With `O=C(NS(=O)(=O)c1cccc(Cl)c1)c1ncn(-c2ccccc2C(F)(F)F)c1Cl` [I-428], the pest or weed control at 20 ppm amounted to 90%.
Turning to `COc1cccc(S(=O)(=O)NC(=O)c2ncn(-c3ccccc3C(F)(F)F)c2Cl)c1` [I-429], the pest or weed control at 20 ppm turned out to be 90%.
`COc1ccc(S(=O)(=O)NC(=O)c2ncn(-c3ccccc3C(F)(F)F)c2Cl)cc1` [I-430]: the pest or weed control at 20 ppm worked out at 90%.
The same measure for `O=C(NS(=O)(=O)c1ccc(Cl)cc1)c1ncn(-c2cccc(C(F)(F)F)c2)c1Cl` [I-431]: 90%.
In the case of `O=C(NS(=O)(=O)c1cccc(Cl)c1)c1ncn(-c2cccc(C(F)(F)F)c2)c1Cl` [I-432], the pest or weed control at 20 ppm amounted to 90%.
For the compound `O=C(NS(=O)(=O)c1ccccc1Cl)c1ncn(-c2cccc(C(F)(F)F)c2)c1Cl` [I-433], the pest or weed control at 20 ppm was determined as 100%.
Next, `O=C(NS(=O)(=O)c1ccccc1)c1ncn(-c2cccc(C(F)(F)F)c2)c1Cl` [I-434]: 100%; `COc1ccccc1S(=O)(=O)NC(=O)c1ncn(-c2cccc(C(F)(F)F)c2)c1Cl` [I-435]: 100%; `COc1cccc(S(=O)(=O)NC(=O)c2ncn(-c3cccc(C(F)(F)F)c3)c2Cl)c1` [I-436]: 100%.
For `COc1ccc(S(=O)(=O)NC(=O)c2ncn(-c3cccc(C(F)(F)F)c3)c2Cl)cc1` [I-437], the pest or weed control at 20 ppm came to 90%.
Next, `COc1ccc(Cl)c(S(=O)(=O)NC(=O)c2cn(-c3cc(Cl)nc(Cl)c3)c(Cl)n2)c1` [I-439]: 90%.
Next, `O=C(NS(=O)(=O)c1ccccc1Cl)c1nc(Br)n(CCC(F)(F)F)c1Cl` [I-440]: 100%; `COc1ccc(Cl)c(S(=O)(=O)NC(=O)c2cn(-c3cc(Cl)cc(Cl)c3)c(Br)n2)c1` [I-441]: 100%.
Turning to `COc1ccc(Cl)c(S(=O)(=O)NC(=O)c2nc(Br)n(-c3cc(Cl)cc(Cl)c3)c2Br)c1` [I-442], the pest or weed control at 20 ppm amounted to 100%.
`COc1ccc(Cl)c(S(=O)(=O)NC(=O)c2cn(-c3cc(Cl)cc(Cl)c3)c(Cl)n2)c1` [I-443]: the pest or weed control at 20 ppm was 100%.
For the compound `O=C(NS(=O)(=O)c1ccccc1Cl)c1cn(-c2cc(Cl)cc(Cl)c2)c(Cl)n1` [I-444], the pest or weed control at 20 ppm is 100%.
For the compound `CSc1nc(C(=O)NS(=O)(=O)c2ccccc2Cl)cn1CCC(F)(F)F` [I-445], the pest or weed control at 20 ppm came to 90%.
For the compound `CSc1nc(C(=O)NS(=O)(=O)c2ccccc2Cl)c(Cl)n1CCC(F)(F)F` [I-446], the pest or weed control at 20 ppm turned out to be 90%.
As to `O=C(NS(=O)(=O)c1ccccc1Cl)c1cc(-c2cc(Cl)cc(Cl)c2)n(CC(F)(F)F)n1` [I-447], the pest or weed control at 20 ppm is 90%.
Regarding `COc1ccc(Cl)c(S(=O)(=O)NC(=O)c2cc(-c3cc(Cl)cc(Cl)c3)n(CC(F)(F)F)n2)c1` [I-448], the pest or weed control at 20 ppm was 100%.
For the compound `CCOc1ccc(Cl)c(S(=O)(=O)NC(=O)c2nc(Cl)n(CCC(F)(F)F)c2Cl)c1` [I-449], the pest or weed control at 20 ppm is 100%.
For `CC(C)Oc1ccc(Cl)c(S(=O)(=O)NC(=O)c2nc(Cl)n(CCC(F)(F)F)c2Cl)c1` [I-450], the pest or weed control at 20 ppm is 100%.
Consider `O=C(NS(=O)(=O)c1c(Cl)cccc1Cl)c1nc(Cl)n(CCC(F)(F)F)c1Cl` [I-451], for which the pest or weed control at 20 ppm was found to be 90%.
With `Cc1ccccc1S(=O)(=O)NC(=O)c1nc(Cl)n(CCC(F)(F)F)c1Cl` [I-452], the pest or weed control at 20 ppm worked out at 100%.
`CSc1cccc(Cl)c1S(=O)(=O)NC(=O)c1nc(Cl)n(CCC(F)(F)F)c1Cl` [I-453]: the pest or weed control at 20 ppm amounted to 100%.
For `COc1ccc(Cl)cc1S(=O)(=O)NC(=O)c1nc(Cl)n(CCC(F)(F)F)c1Cl` [I-454], the pest or weed control at 20 ppm came to 100%.
For the compound `COc1ccc(Br)c(S(=O)(=O)NC(=O)c2nc(Cl)n(CCC(F)(F)F)c2Cl)c1` [I-455], the pest or weed control at 20 ppm is 100%.
Next, `COc1ccc(F)c(S(=O)(=O)NC(=O)c2nc(Cl)n(CCC(F)(F)F)c2Cl)c1` [I-457]: 100%.
As to `O=C(NS(=O)(=O)c1cc(C(F)(F)F)ccc1Cl)c1nc(Cl)n(CCC(F)(F)F)c1Cl` [I-458], the pest or weed control at 20 ppm amounted to 100%.
In the case of `CCOc1ccc(Cl)c(S(=O)(=O)NC(=O)c2nc(Cl)n(C3CC3C(F)(F)F)c2Cl)c1` (stereo not shown) [I-459], the pest or weed control at 20 ppm amounted to 100%.
As to `O=C(NS(=O)(=O)c1c(Cl)cccc1Cl)c1nc(Cl)n(C2CC2C(F)(F)F)c1Cl` (stereo not shown) [I-461], the pest or weed control at 20 ppm worked out at 100%.
For `Cc1ccccc1S(=O)(=O)NC(=O)c1nc(Cl)n(C2CC2C(F)(F)F)c1Cl` (stereo not shown) [I-462], the pest or weed control at 20 ppm was 100%.
Regarding `CSc1cccc(Cl)c1S(=O)(=O)NC(=O)c1nc(Cl)n(C2CC2C(F)(F)F)c1Cl` (stereo not shown) [I-463], the pest or weed control at 20 ppm was 100%.
`COc1ccc(Cl)cc1S(=O)(=O)NC(=O)c1nc(Cl)n(C2CC2C(F)(F)F)c1Cl` (stereo not shown) [I-464]: the pest or weed control at 20 ppm is 90%.
Next, `COc1ccc(Br)c(S(=O)(=O)NC(=O)c2nc(Cl)n(C3CC3C(F)(F)F)c2Cl)c1` (stereo not shown) [I-465]: 100%; `CCc1ccc(C)c(S(=O)(=O)NC(=O)c2nc(Cl)n(C3CC3C(F)(F)F)c2Cl)c1` (stereo not shown) [I-466]: 100%.
Turning to `COc1ccc(F)c(S(=O)(=O)NC(=O)c2nc(Cl)n(C3CC3C(F)(F)F)c2Cl)c1` (stereo not shown) [I-467], the pest or weed control at 20 ppm was found to be 100%.
Regarding `O=C(NS(=O)(=O)c1cc(C(F)(F)F)ccc1Cl)c1nc(Cl)n(C2CC2C(F)(F)F)c1Cl` (stereo not shown) [I-468], the pest or weed control at 20 ppm amounted to 100%.
Take `O=C(NS(=O)(=O)c1ccccc1Cl)c1nc(Cl)n(C2CC2C(F)(F)F)c1Cl` (stereo not shown) [I-469]: the pest or weed control at 20 ppm was 100%.
Turning to `CC(C)S(=O)(=O)NC(=O)c1cn(C)c(C(F)(F)F)n1` [I-471], the pest or weed control at 20 ppm was 90%.
Regarding `Cn1cc(C(=O)NS(=O)(=O)c2ccccc2Cl)nc1C(F)(F)F` [I-472], the pest or weed control at 20 ppm was determined as 90%.
On to `Cn1cc(C(=O)NS(=O)(=O)c2ccccc2Br)nc1C(F)(F)F` [I-473], for which the pest or weed control at 20 ppm stood at 90%.
The same measure for `Cc1ccccc1S(=O)(=O)NC(=O)c1cn(C)c(C(F)(F)F)n1` [I-474]: 100%; for `COc1ccc(Cl)c(S(=O)(=O)NC(=O)c2cn(C)c(C(F)(F)F)n2)c1` [I-475]: 90%.
In the case of `CC(C)Sc1nc(C(=O)NS(=O)(=O)c2ccccc2Cl)cn1C` [I-476], the pest or weed control at 20 ppm is 70%.
The same measure for `Cc1ccccc1S(=O)(=O)NC(=O)c1cn(C)c(SC(C)C)n1` [I-477]: 90%.
As for `COc1ccccc1S(=O)(=O)NC(=O)c1cn(C)c(SC(C)C)n1` [I-478], the pest or weed control at 20 ppm was determined as 70%.
As for `COc1ccc(Cl)c(S(=O)(=O)NC(=O)c2ncn(-c3ccccc3Cl)c2C(F)F)c1` [I-479], the pest or weed control at 20 ppm stood at 90%.
For `COc1ccc(Cl)c(S(=O)(=O)NC(=O)c2ncn(-c3cccc(Cl)c3)c2C(F)F)c1` [I-480], the pest or weed control at 20 ppm turned out to be 90%.
Take `COc1ccc(Cl)c(S(=O)(=O)NC(=O)c2ncn(-c3ccc(Cl)cc3)c2C(F)F)c1` [I-481]: the pest or weed control at 20 ppm is 70%.
For `COc1ccc(Cl)c(S(=O)(=O)NC(=O)c2ncn(-c3ccc(Cl)cc3Cl)c2C(F)F)c1` [I-482], the pest or weed control at 20 ppm was determined as 90%.
As for `COc1ccc(Cl)c(S(=O)(=O)NC(=O)c2ncn(-c3ccc(Cl)cc3Cl)c2C(C)C)c1` [I-484], the pest or weed control at 20 ppm came to 70%.
With `COc1ccc(Cl)c(S(=O)(=O)NC(=O)c2ncn(-c3cccc(Cl)c3)c2C2CC2)c1` [I-485], the pest or weed control at 20 ppm came out at 90%.
On to `COc1ccc(Cl)c(S(=O)(=O)NC(=O)c2ncn(-c3ccc(Cl)cc3Cl)c2C2CC2)c1` [I-486], for which the pest or weed control at 20 ppm stood at 70%.
Take `COc1ccc(Cl)c(S(=O)(=O)NC(=O)c2ncn(-c3c(F)cccc3F)c2C(F)F)c1` [I-487]: the pest or weed control at 20 ppm amounted to 100%.
Consider `COc1ccc(Cl)c(S(=O)(=O)NC(=O)c2ncn(-c3cccc(Cl)c3)c2C(C)C)c1` [I-488], for which the pest or weed control at 20 ppm was 90%.
The same measure for `COc1ccc(Cl)c(S(=O)(=O)NC(=O)c2ncn(-c3ccccc3Cl)c2C2CC2)c1` [I-489]: 90%.

The values are drawn from patent publication US10820591B2, “Substituted sulfonyl amides for controlling animal pests” (Bayer Aktiengesellschaft, priority 2016, dated 2020).
